ChEMBL document CHEMBL6074626, “Recent advances in triazole synthesis via click chemistry and their pharmacological applications: A review” (Bioorg Med Chem Lett, 2024)
≈ marks a conversion by molar mass, not a printed value. Values belong to the compound of their own block, whether it stands above or below them.

Key:
[1] = target: Cystic fibrosis transmembrane conductance regulator (Homo sapiens, UniProt P13569, F508DEL); test: Activation of CFTR F508del mutant (unknown origin)
[2] = target: T1, UDP-N-acetylglucosamine--peptide N-acetylglucosaminyltransferase 110 kDa subunit (Homo sapiens, UniProt O15294)
T1 sequence (O15294 whole entry): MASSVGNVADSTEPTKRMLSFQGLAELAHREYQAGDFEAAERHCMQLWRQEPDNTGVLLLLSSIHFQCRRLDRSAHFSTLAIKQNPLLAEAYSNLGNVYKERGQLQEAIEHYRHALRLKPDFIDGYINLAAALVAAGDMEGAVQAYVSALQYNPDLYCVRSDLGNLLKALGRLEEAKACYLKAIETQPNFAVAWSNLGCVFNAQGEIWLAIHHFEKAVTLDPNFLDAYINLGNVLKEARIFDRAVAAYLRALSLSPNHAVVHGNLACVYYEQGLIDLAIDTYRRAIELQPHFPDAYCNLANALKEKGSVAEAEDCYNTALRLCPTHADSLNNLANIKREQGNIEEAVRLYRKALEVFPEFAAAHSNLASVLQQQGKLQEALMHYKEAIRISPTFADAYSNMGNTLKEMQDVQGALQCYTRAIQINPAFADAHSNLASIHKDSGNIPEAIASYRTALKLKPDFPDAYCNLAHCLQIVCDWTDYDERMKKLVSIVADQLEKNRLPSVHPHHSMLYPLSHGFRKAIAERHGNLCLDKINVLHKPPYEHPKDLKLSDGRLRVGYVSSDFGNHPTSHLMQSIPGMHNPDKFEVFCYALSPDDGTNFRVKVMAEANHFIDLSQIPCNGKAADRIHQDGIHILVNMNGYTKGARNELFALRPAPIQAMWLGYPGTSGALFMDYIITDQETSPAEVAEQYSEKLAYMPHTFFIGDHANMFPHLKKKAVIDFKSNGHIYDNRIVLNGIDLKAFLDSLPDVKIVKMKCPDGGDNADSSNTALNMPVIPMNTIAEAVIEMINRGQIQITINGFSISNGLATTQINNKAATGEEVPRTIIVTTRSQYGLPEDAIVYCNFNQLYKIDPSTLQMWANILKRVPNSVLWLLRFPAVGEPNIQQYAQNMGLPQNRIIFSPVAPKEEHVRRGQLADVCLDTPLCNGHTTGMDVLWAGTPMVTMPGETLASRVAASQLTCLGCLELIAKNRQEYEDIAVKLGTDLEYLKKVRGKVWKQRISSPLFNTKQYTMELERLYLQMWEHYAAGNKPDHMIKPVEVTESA
Description: Binding affinity to human recombinant OGT (312 to 1031 residue) assessed as inhibition constant by fluorescence based analysis

MCF7 = test: Cytotoxicity against human MCF7 cells assessed as reduction in cell viability incubated for 72 hrs by MTT assay; conditions: MCF7, 72 h
MOLT-4 = test: Cytotoxicity against human MOLT-4 cells assessed as reduction in cell viability incubated for 72 hrs by MTT assay; conditions: MOLT-4, 72 h
HT-29 = test: Cytotoxicity against human HT-29 cells assessed as reduction in cell viability incubated for 72 hrs by MTT assay; conditions: HT-29, 72 h
Pseudomonas aeruginosa = test: microbe, parasite or virus in culture; conditions: ATCC 27853
Description: Antimicrobial activity against Pseudomonas aeruginosa ATCC 27853 assessed as inhibition of microbial growth by CLSI protocol based two-fold serial broth microdilution method

Escherichia coli [3] = test: microbe, parasite or virus in culture; conditions: ATCC 25922
Description: Antibacterial activity against Escherichia coli ATCC 25922 assessed as reduction in bacterial growth incubated for 18 to 24 hrs by broth microdilution method

Bacillus cereus [4] = test: microbe, parasite or virus in culture; conditions: ATTC 10876
Description: Antibacterial activity against Bacillus cereus ATTC 10876 assessed as reduction in bacterial growth incubated for 18 to 24 hrs by broth microdilution method

Proteus mirabilis = test: microbe, parasite or virus in culture; conditions: ATCC 35659
Description: Antibacterial activity against Proteus mirabilis ATCC 35659 assessed as reduction in bacterial growth incubated for 18 to 24 hrs by broth microdilution method

Staphylococcus aureus [5] = test: microbe, parasite or virus in culture; conditions: ATCC 25923
Description: Antibacterial activity against Staphylococcus aureus ATCC 25923 assessed as reduction in bacterial growth incubated for 18 to 24 hrs by broth microdilution method

Enterococcus faecalis [6] = test: microbe, parasite or virus in culture; conditions: ATTC 29212, 24 h
Description: Antibacterial activity against Enterococcus faecalis ATCC 29212 assessed as reduction in bacterial growth incubated for 24 hrs by CLSI protocol based assay

Enterococcus faecalis [7] = test: microbe, parasite or virus in culture; conditions: ATCC 29212, 24 h
Description: Antibacterial activity against Enterococcus faecalis ATCC 29212 assessed as inhibition of bacterial growth incubated for 24 hrs by broth microdilution method

Bacillus subtilis = test: microbe, parasite or virus in culture; conditions: ATCC 6633, 20 h
Description: Antibacterial activity against Bacillus subtilis ATCC 6633 assessed as bacterial growth inhibition measured for 20 hrs by micro-broth dilution method

Staphylococcus aureus [8] = test: microbe, parasite or virus in culture; conditions: NCTC 13616, 20 h
Description: Antibacterial activity against methicillin-resistant Staphylococcus aureus NCTC 13616 assessed as reduction in bacterial growth incubated for 20 hrs by broth micro-dilution method

Escherichia coli [9] = test: microbe, parasite or virus in culture; conditions: ATCC 8739, 20 h
Description: Antimicrobial activity against Escherichia coli ATCC 8739 assessed as reduction in bacterial growth incubated for 20 hrs by broth microdilution analysis

Klebsiella pneumoniae = test: microbe, parasite or virus in culture; conditions: ATCC 43816, 20 h
Description: Antimicrobial activity against Klebsiella pneumoniae ATCC 43816 assessed as reduction in bacterial growth incubated for 20 hrs by broth microdilution analysis

Bacillus cereus [10] = test: microbe, parasite or virus in culture; conditions: ATCC 14579
Description: Antibacterial activity against Bacillus cereus ATCC 14579 assessed as reduction in bacterial growth incubated for 18 to 24 hrs by broth microdilution method

Proteus vulgaris = test: microbe, parasite or virus in culture; conditions: ATCC 13315, 24 h
Description: Antimicrobial activity against Proteus vulgaris ATCC 13315 assessed as microbial growth inhibition incubated for 24 hrs by broth microdilution method

K562 = test: Antiproliferative activity against human K562 cells assessed as reduction in cell viability incubated for 72 hrs by MTT assay; conditions: K562, 72 h
HCT-116 = test: Antiproliferative activity against human HCT-116 cells assessed as reduction in cell viability incubated for 72 hrs by MTT assay; conditions: HCT-116, 72 h
[11] = Antioxidant activity assessed as DPPH radical scavenging activity incubated for 30 mins
[12] = Cytotoxicity against CHO-K1 cells assessed as reduction in cell growth incubated for 72 hrs by MTT assay; conditions: Chinese hamster (Cricetulus griseus)

Cystic fibrosis transmembrane conductance regulator, sequence (P13569 as listed by the source): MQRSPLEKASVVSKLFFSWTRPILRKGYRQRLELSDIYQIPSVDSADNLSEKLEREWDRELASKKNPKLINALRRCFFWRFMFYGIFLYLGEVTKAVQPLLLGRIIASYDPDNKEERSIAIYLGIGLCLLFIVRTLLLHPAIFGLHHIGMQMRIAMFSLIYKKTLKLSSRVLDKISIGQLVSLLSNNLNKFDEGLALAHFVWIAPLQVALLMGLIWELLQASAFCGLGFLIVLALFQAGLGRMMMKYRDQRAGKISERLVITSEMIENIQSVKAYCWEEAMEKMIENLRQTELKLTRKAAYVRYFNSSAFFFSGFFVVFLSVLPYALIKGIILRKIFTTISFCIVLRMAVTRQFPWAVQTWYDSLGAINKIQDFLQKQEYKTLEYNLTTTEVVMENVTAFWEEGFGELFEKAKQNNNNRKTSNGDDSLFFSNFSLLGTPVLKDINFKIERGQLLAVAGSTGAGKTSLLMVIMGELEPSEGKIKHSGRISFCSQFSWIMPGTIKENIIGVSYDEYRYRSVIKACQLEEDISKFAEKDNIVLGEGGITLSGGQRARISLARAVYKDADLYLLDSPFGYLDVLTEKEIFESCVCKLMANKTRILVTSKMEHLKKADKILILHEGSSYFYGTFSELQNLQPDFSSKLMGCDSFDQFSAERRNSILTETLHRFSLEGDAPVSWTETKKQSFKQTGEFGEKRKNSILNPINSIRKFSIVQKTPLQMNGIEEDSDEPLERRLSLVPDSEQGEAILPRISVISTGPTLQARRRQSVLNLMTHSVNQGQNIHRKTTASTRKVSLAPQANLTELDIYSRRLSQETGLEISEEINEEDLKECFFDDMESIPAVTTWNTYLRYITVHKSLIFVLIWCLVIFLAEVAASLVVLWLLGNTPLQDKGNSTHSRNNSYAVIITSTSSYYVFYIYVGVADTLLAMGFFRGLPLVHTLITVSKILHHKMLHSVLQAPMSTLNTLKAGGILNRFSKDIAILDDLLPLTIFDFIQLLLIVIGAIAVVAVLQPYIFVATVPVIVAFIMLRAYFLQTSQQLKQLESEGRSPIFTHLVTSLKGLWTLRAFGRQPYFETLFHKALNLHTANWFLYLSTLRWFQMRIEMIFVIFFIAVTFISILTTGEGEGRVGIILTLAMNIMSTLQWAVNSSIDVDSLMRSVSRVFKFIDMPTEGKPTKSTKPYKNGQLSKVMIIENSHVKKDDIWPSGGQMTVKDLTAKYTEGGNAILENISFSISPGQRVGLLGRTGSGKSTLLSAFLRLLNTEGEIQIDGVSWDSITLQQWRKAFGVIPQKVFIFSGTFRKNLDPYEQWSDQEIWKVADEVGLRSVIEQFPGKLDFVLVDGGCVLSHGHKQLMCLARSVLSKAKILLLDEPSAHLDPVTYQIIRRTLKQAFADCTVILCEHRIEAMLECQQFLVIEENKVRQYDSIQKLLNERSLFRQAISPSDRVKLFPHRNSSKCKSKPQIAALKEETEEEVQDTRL

SMILES: Cc1ccc(-n2cc(C3(c4ccc5c(c4)OC(F)(F)O5)CC3)nn2)cc1-c1cccc(C(=O)O)c1
IC50 [1]: 0.66 µM

SMILES: O=C1C=C(NCc2cn(Cc3ccc(C(F)(F)F)cc3)nn2)C(=O)c2ccccc21
IC50 (MCF7): 10.4 µM
IC50 (MOLT-4): 10.4 µM
IC50 (HT-29): 6.8 µM

SMILES: CC(C)Cc1ccc(C(C)C(=O)c2ccc(OCc3cn(-c4ccccc4)nn3)cc2O)cc1 (stereo not given)
MIC (Bacillus subtilis): 12 µg/mL (≈ 26.3 µM)
MIC (Staphylococcus aureus [8]): 12 µg/mL (≈ 26.3 µM)
MIC (Escherichia coli [9]): 12 µg/mL (≈ 26.3 µM)
MIC (Klebsiella pneumoniae): 12 µg/mL (≈ 26.3 µM)
MIC (Bacillus cereus [10]): 12 µg/mL (≈ 26.3 µM)
MIC (Proteus vulgaris): 12 µg/mL (≈ 26.3 µM)

SMILES: CC(C)Cc1ccc(C(C)C(=O)c2ccc(OCc3cn(-c4ccc(Br)cc4)nn3)cc2O)cc1 (stereo not given)
MIC (Bacillus subtilis): 12 µg/mL (≈ 22.5 µM)
MIC (Staphylococcus aureus [8]): 12 µg/mL (≈ 22.5 µM)
MIC (Escherichia coli [9]): 12 µg/mL (≈ 22.5 µM)
MIC (Klebsiella pneumoniae): 12 µg/mL (≈ 22.5 µM)
MIC (Bacillus cereus [10]): 12 µg/mL (≈ 22.5 µM)
MIC (Proteus vulgaris): 12 µg/mL (≈ 22.5 µM)

SMILES: CC(C)Cc1ccc(C(C)C(=O)c2ccc(OCc3cn(-c4ccccc4Cl)nn3)cc2O)cc1 (stereo not given)
MIC (Bacillus subtilis): 12 µg/mL (≈ 24.5 µM)
MIC (Staphylococcus aureus [8]): 12 µg/mL (≈ 24.5 µM)
MIC (Escherichia coli [9]): 12 µg/mL (≈ 24.5 µM)
MIC (Klebsiella pneumoniae): 12 µg/mL (≈ 24.5 µM)
MIC (Bacillus cereus [10]): 12 µg/mL (≈ 24.5 µM)
MIC (Proteus vulgaris): 12 µg/mL (≈ 24.5 µM)

SMILES: O=C(Cn1cc(CSc2nc3cc(OC(F)F)ccc3[nH]2)nn1)NC1CCCCC1
IC50 at 72 h [12]: 53.3 µM

SMILES: CC(C)Cc1ccc(C(C)C(=O)c2ccc(OCc3cn(-c4ccc(Cl)cc4)nn3)cc2O)cc1 (stereo not given)
MIC (Bacillus subtilis): 12 µg/mL (≈ 24.5 µM)
MIC (Staphylococcus aureus [8]): 12 µg/mL (≈ 24.5 µM)
MIC (Escherichia coli [9]): 12 µg/mL (≈ 24.5 µM)
MIC (Klebsiella pneumoniae): 12 µg/mL (≈ 24.5 µM)
MIC (Bacillus cereus [10]): 12 µg/mL (≈ 24.5 µM)
MIC (Proteus vulgaris): 12 µg/mL (≈ 24.5 µM)

SMILES: CCCCCCCCn1cc(COc2ccc(C(=O)C(C)c3ccc(CC(C)C)cc3)c(O)c2)nn1 (stereo not given)
MIC (Bacillus subtilis): 12 µg/mL (≈ 24.4 µM)
MIC (Staphylococcus aureus [8]): 12 µg/mL (≈ 24.4 µM)
MIC (Escherichia coli [9]): 12 µg/mL (≈ 24.4 µM)
MIC (Klebsiella pneumoniae): 12 µg/mL (≈ 24.4 µM)
MIC (Bacillus cereus [10]): 12 µg/mL (≈ 24.4 µM)
MIC (Proteus vulgaris): 12 µg/mL (≈ 24.4 µM)

SMILES: CC(C)Cc1ccc(C(C)C(=O)c2ccc(OCc3cn(-c4ccc([N+](=O)[O-])cc4)nn3)cc2O)cc1 (stereo not given)
MIC (Bacillus subtilis): 12 µg/mL (≈ 24 µM)
MIC (Staphylococcus aureus [8]): 12 µg/mL (≈ 24 µM)
MIC (Escherichia coli [9]): 12 µg/mL (≈ 24 µM)
MIC (Klebsiella pneumoniae): 12 µg/mL (≈ 24 µM)
MIC (Bacillus cereus [10]): 12 µg/mL (≈ 24 µM)
MIC (Proteus vulgaris): 12 µg/mL (≈ 24 µM)

Second part, the compound after the results:

Ki [2]: 232 µM
SMILES: CC(=O)N[C@H]1C(n2cc(COP(=O)(O)OC[C@H]3O[C@@H](n4ccc(=O)[nH]c4=O)[C@H](O)[C@@H]3O)nn2)O[C@H](CO)[C@@H](O)[C@@H]1O (stereo not given in full)

MIC (Pseudomonas aeruginosa): 1 µM (≈ 0.494 µg/mL)
MIC (Escherichia coli [3]): 1 µM (≈ 0.494 µg/mL)
MIC (Bacillus cereus [4]): 1 µM (≈ 0.494 µg/mL)
MIC (Proteus mirabilis): 1 µM (≈ 0.494 µg/mL)
MIC (Staphylococcus aureus [5]): 1 µM (≈ 0.494 µg/mL)
MIC (Enterococcus faecalis [6]): 1 µM (≈ 0.494 µg/mL)
MIC (Enterococcus faecalis [7]): 1 µM (≈ 0.494 µg/mL)
SMILES: CCCCCCCCCCCCCCn1nnc(-c2n[nH]c(=S)n2N)c1-c1n[nH]c(=S)n1N

IC50 (K562): 8.5 µM
IC50 (HCT-116): 23.1 µM
SMILES: COC(=O)CC[C@@H](C)[C@H]1CC[C@H]2[C@@H]3[C@@H](O)C[C@@H]4C[C@H](n5cc(CCCCC#Cc6nc7c(N)ncnc7n6[C@@H]6O[C@H](CO)[C@@H](C)[C@H]6C)nn5)CC[C@]4(C)[C@H]3CC[C@]12C

IC50 [11]: 29.7 µM
SMILES: CCCCc1cn(CCCOc2ccc(-c3cc(=O)c4ccccc4o3)cc2)nn1

MIC (Pseudomonas aeruginosa): 1 µM (≈ 0.466 µg/mL)
MIC (Escherichia coli [3]): 1 µM (≈ 0.466 µg/mL)
MIC (Bacillus cereus [4]): 1 µM (≈ 0.466 µg/mL)
MIC (Proteus mirabilis): 1 µM (≈ 0.466 µg/mL)
MIC (Staphylococcus aureus [5]): 1 µM (≈ 0.466 µg/mL)
MIC (Enterococcus faecalis [6]): 1 µM (≈ 0.466 µg/mL)
MIC (Enterococcus faecalis [7]): 1 µM (≈ 0.466 µg/mL)
SMILES: CCCCCCCCCCCCn1nnc(-c2n[nH]c(=S)n2N)c1-c1n[nH]c(=S)n1N

IC50 [11]: 36 µM
SMILES: CCCCCc1ccc(-c2cn(CCCOc3ccc(-c4cc(=O)c5ccccc5o4)cc3)nn2)cc1

MIC (Pseudomonas aeruginosa): 1 µM (≈ 0.522 µg/mL)
MIC (Escherichia coli [3]): 1 µM (≈ 0.522 µg/mL)
MIC (Bacillus cereus [4]): 1 µM (≈ 0.522 µg/mL)
MIC (Proteus mirabilis): 1 µM (≈ 0.522 µg/mL)
MIC (Staphylococcus aureus [5]): 1 µM (≈ 0.522 µg/mL)
MIC (Enterococcus faecalis [6]): 1 µM (≈ 0.522 µg/mL)
MIC (Enterococcus faecalis [7]): 1 µM (≈ 0.522 µg/mL)
SMILES: CCCCCCCCCCCCCCCCn1nnc(-c2n[nH]c(=S)n2N)c1-c1n[nH]c(=S)n1N

IC50 [11]: 28.8 µM
SMILES: O=c1cc(-c2ccc(OCCCn3cc(-c4cc5ccccc5c5ccccc45)nn3)cc2)oc2ccccc12

MIC (Pseudomonas aeruginosa): 1 µM (≈ 0.438 µg/mL)
MIC (Escherichia coli [3]): 1 µM (≈ 0.438 µg/mL)
MIC (Bacillus cereus [4]): 1 µM (≈ 0.438 µg/mL)
MIC (Proteus mirabilis): 1 µM (≈ 0.438 µg/mL)
MIC (Staphylococcus aureus [5]): 1 µM (≈ 0.438 µg/mL)
MIC (Enterococcus faecalis [6]): 1 µM (≈ 0.438 µg/mL)
MIC (Enterococcus faecalis [7]): 1 µM (≈ 0.438 µg/mL)
SMILES: CCCCCCCCCCn1nnc(-c2n[nH]c(=S)n2N)c1-c1n[nH]c(=S)n1N
